According to patent publication US6465494B1, “Methods for treatment of cystic fibrosis” (Cell Pathways, Inc., priority 2001, dated 2002):
pIC50: −log10 of the molar value. “Also recorded” adds a separate entry of the source. Structures can show the parent of a compound that is named as a salt.

How the values were obtained:
[1] = molecular target: T1, GST-cGB-PDE5 fusion protein (Homo sapiens, UniProt O76074); assay: cGMP binding assay with GST-cGB-PDE5 fusion protein; settings: 3H-cGMP 2 μM, 22° C., 1 hour
T1 construct: made in house; host or cells: E. coli BL21 (DE3)
Text: RT-PCR method is used to obtain the cGB domain of PDE5 with forward and reverse primers designed from bovine PDE5A cDNA sequence (McAllister-Lucas L. M et al, J. Biol. Chem. 268, 22863-22873, 1993) and the selection among PDE 1-10 families. 5′-3′, Inc. kits for total RNA followed by oligo (dT) column purification of mRNA are used with HT-29 cells. […] It is then cloned into pGEX-5X-3 glutathione-S-transferase (GST) fusion vector (Pharmacia Biotech )with tac promoter, and EcoRI and XhoI cut sites. The fusion vector is then transfected into E. Coli BL21 (DE3) bacteria (Invitrogen). The transfected BL21 bacteria is grown to log phase, and then IPTG is added as an inducer. The induction is carried at 20° C. for 24 hrs. The bacteria are harvested and lysed. The soluble cell lysate is incubated with GSH conjugated Sepharose 4B (GSH-Sepharose 4B). The GST-cGB-PDE5 fusion protein can bind to the GSH-Sepharose beads, and the other proteins are washed off from beads with excessive cold PBS.
Then, the mixture is transferred to Brandel MB-24 cell harvester with GF/B as the filter membrane followed by 2 washes with 10 mL of cold 5 mM potassium buffer(pH 6.8). The membranes are then cut out and transferred to scintillation vials followed by the addition of 1 mL of H2O and 6 mL of Ready Safe™ liquid scintillation cocktail to each vial. The vials are counted on a Beckman LS 6500 scintillation counter.
The quenching by filter membrane or other debris are also calibrated.

[2] = tested on: PDE1; assay: PDE inhibition, similar protocols: PDE1; assay type: biochemical
[3] = acute and seven-dose toxicity in dogs (capsules); settings: dog, in vivo
Experimental: Therefore, these dogs were subsequently administered seven consecutive doses of 1000 mg/kg/day.

[4] = 28-day study in rats; assay type: in vivo
Experimental: A 28-day study in rats was also carried out at 0, 50, 500 and 2000 mg/kg/day.

[5] = 91-day long-term safety assessment study in rats; assay type: in vivo
Text: These changes were not associated with any gross clinical abnormality.

[6] = tested on: U937 cells; assay: apoptosis induction of U937 cells (active caspase 3 immunofluorescence); assay type: cell-based; settings: 1 μM, 24 hours, hydrochloride
Experimental: The U937 monocyte cell line was derived from a histocytic lymphoma and can be driven to differentiate into an ‘activated macrophage like’ state by treatment with 5nM phorbal ester (TPA). Treated U937 cells become adherent, increase their cytoplasmic volume and express macrophage-specific cell surface markers. The presence and level of PDE2 and 5 mRNA in both differentiated and non-differentiated U937 cells was confirmed by performing RT-PCR experiments on total RNA.
U937 cells (from ATCC Rockville, Md.) were grown in RPMI media supplemented with 5% FCS, glutamine, antibiotic/antimycotic and sodium pyruvate. Total RNA was isolated from two U937 cultures, one treated with 5nM TPA for 48 hours and one grown in normal media as listed above, using the Rouche High Pure RNA Isolation Kit (cat# 1 828 665) as per manufacturers protocol. cDNA was then synthesized from the total RNA using GibcoBRL Superscriptll (Cat # 18064-022) reverse transcriptase as per manufacturers protocol. The resulting cDNA was used as a template for RT-PCR reactions using primer sets specific for PDE2 (forward: […], reverse: […]) or PDE5 (forward: […], reverse: […]). mRNA for PDE2 and 5 were both present in the untreated U937 cells. Upon treatment with TPA, the relative amounts of PDE2 mRNA increased 5 fold. Therefore, U937 cells treated with TPA and driven to differentiate into an activated macrophage like state have elevated levels of PDE2 mRNA (see FIG. 1).
The presence of PDE2 and PDE5 protein within U937 cells was confirmed by indirect immunofluorescence (IIF). U937 cells were cultured as above. Two U937 cultures, one grown in the presence of 5 nM TPA for 48 hours and one grown in normal media were processed. All cultures were collected by centrifugation (Shandon Cytospin, 2 minutes @ 600 rpm) onto poly-L lysine-coated slides and immediately fixed in fresh 3% paraformaldehyde buffered in PBS for 10 minutes. Adherent cultures were grown on coverslips and fixed as above. […]
The level of apoptosis in U937 cells was quantified by scoring 500 consecutive cells for the presence of active caspase 3. […]

[7] = tested on: TNF-α secreted by TPA-induced U937 cells; assay: TNF-α immunoassay on culture media of TPA-treated U937 cells; assay type: cell-based
Experimental: One function of macrophages is to modulate the activity of other inflammatory cells through various cytokine molecules.
TNF-αlevels in the cell culture media were determined by using the TNF-α Immunoassay from R&D Systems (Cat. # DTA50) according to the manufacturer's protocol.

[8] = 28 days, 50, 500 and 2000 mg/kg/day

With CC1=C(CC(=O)NCc2ccccc2)c2cc(F)ccc2/C1=C\c1ccncc1 [Example 38, (Z)-5-fluoro-2-methyl-(4-pyridylidene)-3-(N-benzyl)indenylacetamide hydrochloride] the “competition with cGMP in binding to the cGMP binding sites of GST-cGB-PDE5” value [1] was “does not bind to the cGMP-binding site of PDE5”, the pIC50 [2] was 5.52 and the LD50 ([3]; both sexes, 1000 mg/kg, dogs, oral) was over 1000 mg/kg. The signs of toxicity ([3]; 1000 mg/kg) was “no signs of toxicity”, the “signs of drug-related effects” value ([3]; 1000 mg/kg/day) was “At no time in either dosing phase were any obvious signs of drug-related effects observed” and the “macroscopic tissue changes at necropsy” value ([4]; 28 days) was “No macroscopic tissue changes”. The “histopathological evaluation of tissues” value ([4]; 28 days, 500 mg/kg/day) was “one female at 500 mg/kg/day had increased mitotic figures in the thyroid gland”, the liver weights ([4]; 28 days, 2000 mg/kg/day) was “statistically significant increase in liver weights” and the thyroid weights ([4]; 28 days, 2000 mg/kg/day) was “statistically significant increases in thyroid weights”. For the same molecule, the “body weight changes, ophthalmoscopic examinations, hematological and blood chemistry values, urinalysis” value [4, 8] was “unremarkable”, the clinical observations [4, 8] was “no abnormal clinical observations” and the “liver and thyroid weight increases at the lower doses” value ([4]; 28 days, 50 and 500 mg/kg/day) was “not statistically significant”. The “histopathological evaluation of tissues” value ([4]; 28 days, small number of animals at 2000 mg/kg/day) was “traces of follicular cell hypertrophy, increased numbers of mitotic figures (suggestive of possible cell proliferation) in the thyroid gland and mild centrilobular hypertrophy in the liver”, the “clinical biochemistry and hematology” value ([5]; 91 days) was “no changes in clinical biochemistry and hematology were evident” and the “microscopic finding, follicular cells” value ([5]; 91 days, 500 mg/kg/day) was “follicular cell hypertrophy”. For the same molecule, the “microscopic finding, kidneys” value ([5]; 91 days, 200 and 500 mg/kg/day) was “increase in accumulation of hyalin droplets in the kidneys”, the “microscopic finding, liver” value ([5]; 91 days, 200 and 500 mg/kg/day) was “slight hepatocellular hypertrophy” and the “liver and thyroid/parathyroid weights” value ([5]; 91 days, males and females at 200 and 500 mg/kg/day) was “dose-related trend to increased liver and thyroid/parathyroid weights”. For the same molecule, the toxicological effects overall ([5]; oral, 91 consecutive days, 50, 200 and 500 mg/kg/day) was “did not produce any major toxicological effects”, the “induction of apoptosis (active caspase 3)” value [6] was “undergoing apoptosis as reflected by the presence of active caspase 3; also recorded: causes the induction of apoptosis in the differentiated and non-differentiated U937 cell line” and the “level of TNF-α secreted into cell culture media” value [7] was “significantly reduced”.
